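Where inhibition never reached the appropriate level, the endpoint shown equals the highest concentration tested. Otherwise, values were interpolated linearly from a five-concentration, 48-hour dose response in 96-well plates. Abbreviation: GI50, concentration required for 50% inhibition of growth. TGI is the concentration that stops growth completely.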
Legend:
Assay in all cases: inhibition of tumour cell growth, NCI panel, 48 h
OVCAR-4 ovarian = test system: OVCAR-4 ovarian
NCI-H226 lung = test system: NCI-H226 lung
LOX IMVI melanoma = test system: LOX IMVI melanoma
HCC-2998 colon = test system: HCC-2998 colon
RXF 393 renal = test system: RXF 393 renal
SR leukemia = test system: SR leukemia
MOLT-4 leukemia = test system: MOLT-4 leukemia
OVCAR-3 ovarian = test system: OVCAR-3 ovarian
MALME-3M melanoma = test system: MALME-3M melanoma
SK-OV-3 ovarian = test system: SK-OV-3 ovarian
UACC-62 melanoma = test system: UACC-62 melanoma
DMS 273 small cell lung = test system: DMS 273 small cell lung
COLO 205 colon = test system: COLO 205 colon
SN12C renal = test system: SN12C renal
A549 NSCLC = test system: A549 NSCLC
NCI-H460 lung = test system: NCI-H460 lung
KM12 colon = test system: KM12 colon
IGROV1 ovarian = test system: IGROV1 ovarian
M19-MEL melanoma = test system: M19-MEL melanoma
LXFL 529 NSCLC = test system: LXFL 529 NSCLC
CCRF-CEM leukemia = test system: CCRF-CEM leukemia
ACHN renal = test system: ACHN renal
HT29 colon = test system: HT29 colon
SK-MEL-28 melanoma = test system: SK-MEL-28 melanoma
OVCAR-5 ovarian = test system: OVCAR-5 ovarian
U251 CNS = test system: U251 CNS
M14 melanoma = test system: M14 melanoma
HCT-15 colon = test system: HCT-15 colon
RPMI-8226 leukemia = test system: RPMI-8226 leukemia
HL-60(TB) leukemia = test system: HL-60(TB) leukemia
DMS 114 small cell lung = test system: DMS 114 small cell lung
SF-539 CNS = test system: SF-539 CNS
NCI-H522 lung = test system: NCI-H522 lung
SK-MEL-5 melanoma = test system: SK-MEL-5 melanoma
XF 498 CNS = test system: XF 498 CNS
HOP-92 NSCLC = test system: HOP-92 NSCLC
SF-268 CNS = test system: SF-268 CNS
DLD-1 colon = test system: DLD-1 colon
UO-31 renal = test system: UO-31 renal
SNB-78 CNS = test system: SNB-78 CNS
SNB-19 CNS = test system: SNB-19 CNS
KM20L2 colon = test system: KM20L2 colon
TK-10 renal = test system: TK-10 renal
HOP-62 NSCLC = test system: HOP-62 NSCLC
SW-620 colon = test system: SW-620 colon
OVCAR-8 ovarian = test system: OVCAR-8 ovarian
HCT-116 colon = test system: HCT-116 colon
SK-MEL-2 melanoma = test system: SK-MEL-2 melanoma
K-562 leukemia = test system: K-562 leukemia
786-0 renal = test system: 786-0 renal
SF-295 CNS = test system: SF-295 CNS
NCI-H23 lung = test system: NCI-H23 lung
A498 renal = test system: A498 renal
SNB-75 CNS = test system: SNB-75 CNS
CAKI-1 renal = test system: CAKI-1 renal
UACC-257 melanoma = test system: UACC-257 melanoma
EKVX NSCLC = test system: EKVX NSCLC

## Cc1cc2c(cc1O)[nH]c1cc3c(cc12)C=CC(C)(C)O3
OVCAR-4 ovarian
  TGI: > 25 µM
NCI-H226 lung
  GI50: 18.9 µM
  TGI: > 25 µM
LOX IMVI melanoma
  GI50: 3.95 µM
  TGI: 7.41 µM
HCC-2998 colon
  GI50: 6.73 µM
  TGI: 14.5 µM
RXF 393 renal
  GI50: 4.93 µM
  TGI: 11.5 µM
SR leukemia
  GI50: 6.39 µM
  TGI: 24.9 µM
MOLT-4 leukemia
  GI50: 0.00323 µM
  TGI: > 25 µM
OVCAR-3 ovarian
  TGI: 22.6 µM
MALME-3M melanoma
  GI50: 10.1 µM
  TGI: > 25 µM
SK-OV-3 ovarian
  TGI: > 25 µM
UACC-62 melanoma
  GI50: 6.75 µM
  TGI: > 25 µM
DMS 273 small cell lung
  GI50: 5.04 µM
  TGI: 12.2 µM
COLO 205 colon
  TGI: > 25 µM
SN12C renal
  GI50: 6.32 µM
  TGI: 18.9 µM
A549 NSCLC
  GI50: 6.42 µM
  TGI: 21.6 µM
NCI-H460 lung
  GI50: 5.36 µM
  TGI: 12.4 µM
KM12 colon
  GI50: 5.26 µM
  TGI: 11.9 µM
IGROV1 ovarian
  GI50: 22.9 µM
  TGI: > 25 µM
M19-MEL melanoma
  GI50: 19.6 µM
  TGI: > 25 µM
LXFL 529 NSCLC
  GI50: 9.31 µM
  TGI: > 25 µM
CCRF-CEM leukemia
  GI50: 19.8 µM
  TGI: > 25 µM
ACHN renal
  GI50: 9.3 µM
  TGI: > 25 µM
HT29 colon
  GI50: 11.8 µM
  TGI: > 25 µM
SK-MEL-28 melanoma
  GI50: 14.5 µM
  TGI: > 25 µM
OVCAR-5 ovarian
  TGI: > 25 µM
U251 CNS
  GI50: 6.06 µM
  TGI: 14.3 µM
M14 melanoma
  GI50: 6.07 µM
  TGI: 16.9 µM
HCT-15 colon
  GI50: 8.73 µM
  TGI: > 25 µM
RPMI-8226 leukemia
  TGI: > 25 µM
HL-60(TB) leukemia
  GI50: 6.98 µM
  TGI: > 25 µM
DMS 114 small cell lung
  TGI: > 25 µM
SF-539 CNS
  GI50: 4.08 µM
  TGI: 9.96 µM
NCI-H522 lung
  GI50: 8.39 µM
  TGI: > 25 µM
SK-MEL-5 melanoma
  GI50: 17.5 µM
  TGI: > 25 µM
XF 498 CNS
  TGI: > 25 µM
HOP-92 NSCLC
  GI50: 9.85 µM
  TGI: > 25 µM
SF-268 CNS
  GI50: 6.69 µM
  TGI: > 25 µM
DLD-1 colon
  GI50: 12.7 µM
  TGI: > 25 µM
UO-31 renal
  GI50: 11.4 µM
  TGI: > 25 µM
SNB-78 CNS
  TGI: > 25 µM
SNB-19 CNS
  TGI: > 25 µM
KM20L2 colon
  GI50: 9.35 µM
  TGI: > 25 µM
TK-10 renal
  TGI: > 25 µM
HOP-62 NSCLC
  GI50: 7.95 µM
  TGI: 24.4 µM
SW-620 colon
  GI50: 7.64 µM
  TGI: > 25 µM
OVCAR-8 ovarian
  TGI: 9.41 µM
HCT-116 colon
  GI50: 12.8 µM
  TGI: > 25 µM
SK-MEL-2 melanoma
  TGI: > 25 µM
K-562 leukemia
  TGI: > 25 µM

## CCc1cccc(C(C)CC)c1NC(=O)CC1C(=O)Nc2ccccc2S1(=O)=O (centres undefined)
OVCAR-4 ovarian
  TGI: 39.9 µM
LOX IMVI melanoma
  TGI: 39.9 µM
HCC-2998 colon
  TGI: 22.1 µM
MOLT-4 leukemia
  TGI: 41.5 µM
OVCAR-3 ovarian
  TGI: 38.2 µM
MALME-3M melanoma
  TGI: > 100 µM
SK-OV-3 ovarian
  TGI: 99.2 µM
UACC-62 melanoma
  TGI: > 100 µM
DMS 273 small cell lung
  TGI: 71.3 µM
COLO 205 colon
  TGI: 44.5 µM
786-0 renal
  TGI: 33.6 µM
SN12C renal
  TGI: > 100 µM
A549 NSCLC
  TGI: 70 µM
SF-295 CNS
  TGI: > 100 µM
NCI-H460 lung
  TGI: > 100 µM
KM12 colon
  TGI: 40.5 µM
IGROV1 ovarian
  TGI: > 100 µM
M19-MEL melanoma
  TGI: > 100 µM
LXFL 529 NSCLC
  TGI: 24.5 µM
CCRF-CEM leukemia
  TGI: 30.5 µM
ACHN renal
  TGI: > 100 µM
HT29 colon
  TGI: 47.9 µM
SK-MEL-28 melanoma
  TGI: > 100 µM
OVCAR-5 ovarian
  TGI: > 100 µM
U251 CNS
  TGI: > 100 µM
NCI-H23 lung
  TGI: 40.1 µM
M14 melanoma
  TGI: > 100 µM
HCT-15 colon
  TGI: 48.7 µM
RPMI-8226 leukemia
  TGI: 43.3 µM
DMS 114 small cell lung
  TGI: 39.2 µM
SF-539 CNS
  TGI: 52.1 µM
A498 renal
  TGI: 72.6 µM
SK-MEL-5 melanoma
  TGI: > 100 µM
SNB-75 CNS
  TGI: 94.6 µM
XF 498 CNS
  TGI: > 100 µM
SF-268 CNS
  TGI: > 100 µM
DLD-1 colon
  TGI: 33.2 µM
UO-31 renal
  TGI: 96.2 µM
CAKI-1 renal
  TGI: 40.2 µM
UACC-257 melanoma
  TGI: > 100 µM
SNB-78 CNS
  TGI: 65.5 µM
SNB-19 CNS
  TGI: > 100 µM
KM20L2 colon
  TGI: > 100 µM
TK-10 renal
  TGI: 84.5 µM
HOP-62 NSCLC
  TGI: > 100 µM
SW-620 colon
  TGI: 28.7 µM
OVCAR-8 ovarian
  TGI: 15.9 µM
EKVX NSCLC
  TGI: 44.3 µM
SK-MEL-2 melanoma
  TGI: > 100 µM
K-562 leukemia
  TGI: 28.5 µM

— PubChem BioAssay (NCI)
